Source: patent US20120323164A1, “PHOTODYNAMIC THERAPY WITH PHTHALOCYANINES AND RADICAL SOURCES” (Case Western Reserve University, priority 2011, published 2012)
Where “and” joins values, the source holds several entries; their conditions need not be identical. Equal values may be shown once. Read-outs that look alike come from different tables or passages of the source.

What was measured:
[1] = for decomp (%) of Pc 4: Pc 4 in toluene ~9 μM, white light 1.2 kJ/s/m^2
Procedure: The beam intensity was checked before each measurement.
Solutions for the photodecomposition experiments were prepared as follows.

[2] = Qualitative solubility in organic solvents
[3] = Photodecomposition of phthalocyanines in toluene under white light, no added radical source; conditions: for decomp (%): toluene ~9 μM, white light 1.2 kJ/s/m^2
Procedure: The distance between the cuvette face and the lamp filament was 30 cm. Determination of the beam intensity at the cuvette face was made with a powermeter (Powermax, pm10, Coherent, Santa Clara, Calif.). The beam intensity was checked before each measurement.
Solutions for the photodecomposition experiments were prepared as follows. […] This assumption was justified on the basis that all of the silicon phthalocyanines studied contained simple, unsubstituted phthalocyanine rings. The extinction coefficients of the aluminum phthalocyanines were assumed to be 2.3×10^5, the extinction coefficient of AlPcOSi(CH3)2(CH2)3N(CH3)2, Pc 1.
The absorbance of the Q band of the solution, A, was determined with a spectrophotometer (Lambda 25, Perkin Elmer, Shelton, Conn.; fused silica cuvettes, 1.00 cm, 3.5 mL, Fisher Scientific). From A, ε, the cuvette path length, b, and Beer's law, the concentration of the solution, c, was determined. The solution was then diluted with toluene to a concentration of 9.2 μM. To verify that this was the concentration of the solution, its absorbance was measured again.
In a typical determination, the solution (3.00 mL) was placed in a cuvette (1.00 cm, 3.5 mL, Fisher Scientific, Pittsburgh, Pa.) and its absorbance was measured with the spectrometer (Lambda 25) before irradiation and at 2, 4, 6 and 8 h.
where A0 is the absorbance of the solution at time 0, and At is the absorbance at time t.

[4] = time 0 h, alkene 1:100 mole ratio
[5] = time 0 h, alkene 1:1000 mole ratio
[6] = time 2 h, alkene 1:100 mole ratio
[7] = time 2 h, alkene 1:1000 mole ratio
[8] = time 4 h, alkene 1:100 mole ratio
[9] = time 4 h, alkene 1:1000 mole ratio
[10] = time 6 h, alkene 1:100 mole ratio
[11] = time 6 h, alkene 1:1000 mole ratio
[12] = time 8 h, alkene 1:100 mole ratio
[13] = time 8 h, alkene 1:1000 mole ratio
[14] = time 2 h, radiation 86 kJ/mol × 10^−6, no added alkene
[15] = time 4 h, radiation 172 kJ/mol × 10^−6, no added alkene
[16] = time 6 h, radiation 258 kJ/mol × 10^−6, no added alkene
[17] = time 8 h, radiation 344 kJ/mol × 10^−6, no added alkene

Compound	solubility (in words) [2]	decomp (%) ([3]; time 0 h, no added alkene)	decomp (%) [3, 14]	decomp (%) [3, 15]	decomp (%) [3, 16]	decomp (%) [3, 17]	also measured
CC(C)=CCC/C(C)=C/CC/C(C)=C/CC/C=C(\C)CC/C=C(\C)CCC=C(C)C [squalene]							decomp (%) of Pc 4 [1, 4]: 0%; decomp (%) of Pc 4 [1, 5]: 0%; decomp (%) of Pc 4 [1, 6]: 50%; decomp (%) of Pc 4 [1, 7]: 57%; decomp (%) of Pc 4 [1, 8]: 75%; decomp (%) of Pc 4 [1, 9]: 81%; decomp (%) of Pc 4 [1, 10]: 87%; decomp (%) of Pc 4 [1, 11]: 92%; decomp (%) of Pc 4 [1, 12]: 94%; decomp (%) of Pc 4 [1, 13]: 96%
CC1=C(/C=C/C(C)=C/C=C/C(C)=C/C(=O)O)C(C)(C)CCC1.CC1=C(/C=C/C(C)=C/C=C/C(C)=C/C(=O)O)C(C)(C)CCC1.CN(C)CCC[Si](C)(C)O[Si]1(O[Si](C)(C)CCCN(C)C)n2c3c4ccccc4c2N=C2N=C(N=c4c5ccccc5c(n41)=NC1=NC(=N3)c3ccccc31)c1ccccc12 [Pc 293, SiPc[OSi(CH3)2(CH2)3NH(CH3)2]2^2+ [OC(O)(CH═C(CH3)CH═CH)2C6H6(CH3)3]2]	soluble in ethanol, CH2Cl2 and dimethylformamide, moderately soluble in toluene, and insoluble in hexanes						
C=C[Si](C=C)(C=C)O[Si]1(O[Si](C=C)(C=C)C=C)n2c3c4ccccc4c2N=C2N=C(N=c4c5ccccc5c(n41)=NC1=NC(=N3)c3ccccc31)c1ccccc12 [Pc 279, SiPc[OSi(CH═CH2)3]2]	soluble in CH2Cl2, dimethylformamide, pyridine and toluene, and insoluble in hexanes and methanol	0	0%	0%	0%	0%	photostability (in words) ([3]; white light, toluene, no added alkene): quite stable, remaining unchanged during 8 hours of irradiation
CC(C)=CCC/C(C)=C/CC/C(C)=C/CO [farnesol]							effectiveness of alkene in decreasing photostability of Pc 4 (in words) [1]: most effective; decomp (%) of Pc 4 [1, 4]: 0%; decomp (%) of Pc 4 [1, 5]: 0%; decomp (%) of Pc 4 [1, 6]: 13%; decomp (%) of Pc 4 [1, 7]: 79%; decomp (%) of Pc 4 [1, 8]: 20%; decomp (%) of Pc 4 [1, 9]: 93%; decomp (%) of Pc 4 [1, 10]: 38%; decomp (%) of Pc 4 [1, 11]: 99%; decomp (%) of Pc 4 [1, 12]: 50%; decomp (%) of Pc 4 [1, 13]: 99%
ZnPc[2,3-O(C2H4CH(CH3)CH2)2C2H4CH(CH3)2]2 [Pc 275]	slightly soluble in CH2Cl2, dimethylformamide, toluene, and hexanes						
SiPc[O(CH2CH═C(CH3)CH2)2CH2CH═C(CH3)2]2 [Pc 303]	soluble in CH2Cl2, dimethylformamide, pyridine and toluene, and insoluble in hexanes and methanol	0	1%	2%	2%	2%	stability in the dark [3]: stable in the dark
CC(C)=CCC/C(C)=C/CO [geraniol]							effectiveness of alkene in decreasing photostability of Pc 4 (in words) [1]: most effective; decomp (%) of Pc 4 [1, 4]: 0%; decomp (%) of Pc 4 [1, 5]: 0%; decomp (%) of Pc 4 [1, 6]: 10%; decomp (%) of Pc 4 [1, 7]: 87%; decomp (%) of Pc 4 [1, 8]: 14%; decomp (%) of Pc 4 [1, 9]: 98%; decomp (%) of Pc 4 [1, 10]: 21%; decomp (%) of Pc 4 [1, 11]: 99%; decomp (%) of Pc 4 [1, 12]: 30%; decomp (%) of Pc 4 [1, 13]: 99%
CoPc[2,3-O(C2H4CH(CH3)CH2)2C2H4CH(CH3)2]2 [Pc 273]	slightly soluble in CH2Cl2, dimethylformamide, toluene, and hexanes						
NiPc[2,3-O(C2H4CH(CH3)CH2)2C2H4CH(CH3)2]2 [Pc 274]	slightly soluble in CH2Cl2, dimethylformamide, toluene, and hexanes						
HOSiPcOSi(CH3)2(CH2)3N(C2H5)2 [Pc 34]	soluble in CH2Cl2, dimethylformamide, and toluene, and insoluble in hexanes						
CCCCC/C=C\C/C=C\C/C=C\C/C=C\CCCC(=O)O.CCCCC/C=C\C/C=C\C/C=C\C/C=C\CCCC(=O)O.CN(C)CCC[Si](C)(C)O[Si]1(O[Si](C)(C)CCCN(C)C)n2c3c4ccccc4c2N=C2N=C(N=c4c5ccccc5c(n41)=NC1=NC(=N3)c3ccccc31)c1ccccc12 [Pc 291, SiPc[OSi(CH3)2(CH2)3NH(CH3)2]2^2+ [OC(O)(CH2)2(CH2CH═CH)4(CH2)4CH3]2]	soluble in ethanol, CH2Cl2 and dimethylformamide, moderately soluble in toluene, and insoluble in hexanes	0	18%	19%	20%	20%	
CCCCCCCC/C=C\CCCCCCCC(=O)O[Si]1(OC(=O)CCCCCCC/C=C\CCCCCCCC)n2c3c4ccccc4c2N=C2N=C(N=c4c5ccccc5c(n41)=NC1=NC(=N3)c3ccccc31)c1ccccc12 [Pc 295, SiPc[OC(O)(CH2)7CH═CH(CH2)7CH3]2]	soluble in CH2Cl2, dimethylformamide, pyridine and toluene, slightly soluble in hexanes, and insoluble in methanol	0	2%	3%	3%	4%	
CC/C=C\C/C=C\C/C=C\C/C=C\C/C=C\C/C=C\CCC(=O)O.CC/C=C\C/C=C\C/C=C\C/C=C\C/C=C\C/C=C\CCC(=O)O.CN(C)CCC[Si](C)(C)O[Si]1(O[Si](C)(C)CCCN(C)C)n2c3c4ccccc4c2N=C2N=C(N=c4c5ccccc5c(n41)=NC1=NC(=N3)c3ccccc31)c1ccccc12 [Pc 292, SiPc[OSi(CH3)2(CH2)3NH(CH3)2]2^2+ [OC(O)CH2(CH2CH═CH)6CH2CH3]2^−]	soluble in ethanol, CH2Cl2 and dimethylformamide, moderately soluble in toluene, and insoluble in hexanes	0	20%	21%	22%	22%	
CC(C)CCCC(C)CCCC(C)CCOc1cc2c(cc1OCCC(C)CCCC(C)CCCC(C)C)-c1nc-2nc2[nH]c(nc3nc(nc4[nH]c(n1)c1ccccc41)-c1ccccc1-3)c1ccccc21 (centres unmarked) [Pc 272, H2Pc[2,3-O(C2H4CH(CH3)CH2)2C2H4CH(CH3)2]2]	soluble in CH2Cl2 and toluene, and slightly soluble in dimethylformamide and hexanes						
SiNc[OSi(CH3)2(CH2)3N(CH3)2]2 [Compound 41]	soluble in CH2Cl2, dimethylformamide, and toluene, and insoluble in hexanes						
SiPc[OC(O)(CH2)6(CH2CH═CH)2(CH2)4CH3]2 [Pc 296]	soluble in CH2Cl2, dimethylformamide, pyridine and toluene, slightly soluble in hexanes, and insoluble in methanol	0	2%	3%	4%	5%	
SiPc[OC(O)(CH2)2(CH2CH═CH)4(CH2)4CH3]2 [Pc 299]	soluble in CH2Cl2, dimethylformamide, pyridine and toluene, slightly soluble in hexanes, and insoluble in methanol	0	7% and 12%	12% and 21%	14% and 27%	17% and 33%	
CCCCC/C=C\C/C=C\CCCCCCCC(=O)O.CCCCC/C=C\C/C=C\CCCCCCCC(=O)O.CN(C)CCC[Si](C)(C)O[Si]1(O[Si](C)(C)CCCN(C)C)n2c3c4ccccc4c2N=C2N=C(N=c4c5ccccc5c(n41)=NC1=NC(=N3)c3ccccc31)c1ccccc12 [Pc 289, SiPc[OSi(CH3)2(CH2)3NH(CH3)2]2^2+ [OC(O)(CH2)6(CH2CH═CH)2(CH2)4CH3]2]	soluble in ethanol, CH2Cl2 and dimethylformamide, moderately soluble in toluene, and insoluble in hexanes	0	18%	19%	20%	21%	
C1=C\CC/C=C\CC/1 [1,5-cyclooctadiene]							decomp (%) of Pc 4 [1, 5]: 0%; decomp (%) of Pc 4 [1, 7]: 23%; decomp (%) of Pc 4 [1, 9]: 49%; decomp (%) of Pc 4 [1, 11]: 69%; decomp (%) of Pc 4 [1, 13]: 83%
SiPc[OC(O)CH2(CH2CH═CH)6CH2CH3]2 [Pc 300]	soluble in CH2Cl2, dimethylformamide, pyridine and toluene, slightly soluble in hexanes, and insoluble in methanol	0	16%	34%	46%	56%	
CCCCC/C=C\C/C=C\CCCCCCCC(=O)O [linoleic acid]							decomp (%) of Pc 4 [1, 5]: 0%; decomp (%) of Pc 4 [1, 7]: 40%; decomp (%) of Pc 4 [1, 9]: 72%; decomp (%) of Pc 4 [1, 11]: 89%; decomp (%) of Pc 4 [1, 13]: 99%
SiPc[O(CH2)4CH3]2 [Pc 307]	soluble in CH2Cl2, dimethylformamide, pyridine and toluene, and insoluble in hexanes and methanol	0	23%	55%	80%	90%	stability in the dark [3]: stable in the dark
CC/C=C\C/C=C\C/C=C\CCCCCCCC(=O)O.CC/C=C\C/C=C\C/C=C\CCCCCCCC(=O)O.CN(C)CCC[Si](C)(C)O[Si]1(O[Si](C)(C)CCCN(C)C)n2c3c4ccccc4c2N=C2N=C(N=c4c5ccccc5c(n41)=NC1=NC(=N3)c3ccccc31)c1ccccc12 [Pc 290, SiPc[OSi(CH3)2(CH2)3NH(CH3)2]2^2+ [OC(O)(CH2)6(CH2CH═CH)3CH2CH3]2]	soluble in ethanol, CH2Cl2 and dimethylformamide, moderately soluble in toluene, and insoluble in hexanes						
